Laboratory results: patent US8232278B2 (Gilead Sciences, Inc., priority 2005, dated 2012)
pEC50: −log10 of the molar value. Where two headings read alike, the source gives them in different places.

Key:
HCV replicon = assay: Anti-HCV assay / replicon assay (EC50, luciferase read-out); assay type: cell-based, hepatitis C virus (HCV); conditions: for CC50/EC50: CC50/EC50 ratio (selectivity index)
Experimental: (§1) The anti-HCV activity of the pyrido[3,2-d]pyrimidine derivatives of this invention was tested in a human hepatoma Huh-7 cell line harbouring a HCV replicon. The assay comprised the following steps:
(§2) Step 1: Compound Preparation and Serial Dilution
(§3) • 1. for water soluble pyrido[3,2-d]pyrimidine derivatives, a volume of 500 μL of solution in cell media (DMEM, 10% FBS, P/S, L-Glutamine) was prepared with a concentration being twice the concentration of the starting final serial dilution concentration. […] The rest of the plate, columns 2-12, was filled with 100 μL of cell media. The plate was then placed on a Precision 2000 Workstation to start the serial dilution. Compounds were diluted three times each step from column 1 to column 10. Column 11 was used as a blank control (no compound added). • 2. for pyrido[3,2-d]pyrimidine derivatives requiring DMSO to dissolve, serial dilution is performed in 50% DMSO in a 384-well plate. A solution containing a compound at 100-fold concentration of the starting final serial dilution concentration was prepared in 50% DMSO and added to the pre-specified wells in column 1 of a polypropylene 384-well plate. The plate was then placed on a Precision 2000 Workstation to start the serial dilution. After the serial dilution, a volume of 2 μL of the solution was transferred from the 384-well plate to a 96-well cell culture plate containing 100 μL of cell media on a Biomek FX Workstation. The DMSO concentration in the final assay condition was 0.5% after cells are added to the plate and the total volume in each well is brought to 200 μL. Step 2: to each well of the serial dilution plate prepared above, 100 μL of cell media containing 6000 suspended Huh-7 HCV replicon cells was added with a Multidrop workstation. The plates were incubated for 3 days at 37° C. with 5% CO2. Step 3: Detection: • a) for the EC50 assay, the media in a 96-well cell culture plate was aspirated with a Biotek EL405 plate-washer. A volume of 200 μL of a solution containing a 1:1 mixture of cell-lysis buffer (Promega, Luciferase Cell Culture Lysis 5× Reagent, cat. #E1531) and luciferase substrate solution (Promega, Luciferase Assay, cat. #E4550) was added to each well of the plate with Multidrop.
(§4) Results in table 7 are expressed by the following data: • the 50% effective concentration (EC50), i.e. the concentration that protects 50% of the cell monolayer from virus-induced cythopathic effect, and • the 50% cytostatic concentration (CC50), i.e. the concentration that results in 50% inhibition of cell growth. Table 7 further indicates the nature of substituents being present in positions 2, 4 and 6 of the pyrido[3,2-d]pyrimidine derivatives of the invention.

Huh-7 HCV replicon cells = assay: CC50 assay in Huh-7 HCV replicon cells (CellTiter-Glo); assay type: cell-based, human; conditions: 3 days, 50% cytostatic concentration
Experimental: as §1, §2, §3, §4

[1] = human hepatoma Huh-7 cell line harbouring a HCV replicon, 3 days, luciferase luminescence, read-out: EC50
[2] = Hepatitis C virus, 72 h, human hepatoma Huh-7 cell line harbouring a HCV replicon, 3 days, luciferase luminescence, read-out: EC50

| Molecule | CC50/EC50 (HCV replicon) | pEC50 (HCV replicon; [1]) | CC50 (Huh-7 HCV replicon cells) [nM] | pEC50 (HCV replicon; Hepatitis C virus, Huh-7, 72 h) | pEC50 (HCV replicon; [2]) |
| --- | --- | --- | --- | --- | --- |
| Cc1cccc(NC(=O)N2CCN(c3nc(N)nc4ccc(-c5ccc(Cl)c(Cl)c5)nc34)CC2)c1 [Example 191, 2-amino-4-[N-(3-methyl-phenyl-carbamoyl)-piperazin-1-yl]-6-(3,4-dichlorophenyl)-pyrido[3,2-d]pyrimidine] | 132 | 8.05 | 1200 |  |  |
| COc1ccc(-c2ccc3nc(Cl)nc(N4CCN(C(=O)Nc5cccc(C)c5)CC4)c3n2)cc1OC [Example 14] | 167 | 6.82 | 25100 |  |  |
| CCOc1nc(N)nc2ccc(-c3ccc(Cl)cc3)nc12 [Example 463, 6-(4-chloro-phenyl)-4-ethoxy-pyrido[3,2-d]pyrimidin-2-ylamine] | 98 |  | 50100 | 6.29 |  |
| COc1ccc(-c2ccc3nc(N)nc(N4CCN(C(=O)Nc5cccc(Cl)c5)CC4)c3n2)cc1OC [Example 63, 2-amino-4(N-3-chloro-phenyl-carbamoyl-piperazin-1-yl)-6-(3,4-dimethoxyphenyl)-pyrido[3,2-d]pyrimidine] | 106 | 8.15 | 700 |  |  |
| 2-amino-4-[(N-3-chloro-phenyl-carbamoyl)-piperazin-1-yl]-6-(3-methyl-4-methoxy-phenyl)pyrido-[3,2-d]pyrimidine [Example 168] | 97 | 7.57 | 2600 |  |  |
| Cc1cccc(NC(=O)N2CCN(c3nc(N)nc4ccc(-c5ccc6c(c5)OCCO6)nc34)CC2)c1 [Example 192, 2-amino-4-[N-(3-methyl-phenyl-carbamoyl)-piperazin-1-yl]-6-(1,4-benzodioxane)-pyrido[3,2-d]pyrimidine] | 147 | 8.30 | 690 |  |  |
| Cc1ccc(-c2ccc3ncnc(N4CCN(C(=O)Nc5cccc(Cl)c5)CC4)c3n2)cc1C [Example 84] | 167 | 6.89 | 21800 |  |  |
| COc1cc(-c2ccc3nc(N)nc(N4CCN(C(=O)Nc5ccc(F)cc5)CC4)c3n2)ccc1OC(C)C [Example 106, 2-amino-4-[(N-4-fluoro-phenyl-carbamoyl)-piperazin-1-yl]-6-(4-isopropoxy-3-methoxy-phenyl)-pyrido[3,2-d]pyrimidine] | 102 | 7.46 | 3600 |  |  |
| CCCOc1nc(N)nc2ccc(-c3ccccc3F)nc12 [Example 282, 2-amino-4-n-propoxy-6-(o-fluorophenyl)-pyrido[3,2-d]pyrimidine] | 89 |  | 50100 |  | 6.25 |
| Nc1nc(N2CCS(=O)(=O)CC2)c2nc(-c3ccc(F)cc3)ccc2n1 [Example 406, 2-amino-4-(thiomorpholino-1,1-dioxide)-6-(4-fluorophenyl)pyrido[3,2-d]pyrimidine] | 1931 | 7.89 | 25100 |  |  |
| CSc1nc(N)nc2ccc(-c3ccc(F)cc3)nc12 [Example 392, 2-amino-4-thiomethyl-6-(4-fluorophenyl)-pyrido(3,2-d)pyrimidine] | 512 | 7.31 | 25100 |  |  |
| CC(C)Sc1nc(N)nc2ccc(-c3ccc(F)cc3)nc12 [Example 394, 2-amino-4-thioisopropyl-6-(4-fluorophenyl)pyrido(3,2-d)pyrimidine] | 268 | 6.73 | 50100 |  |  |
| Nc1nc(N2CCN(C(=O)COc3ccc(Cl)cc3)CC2)c2nc(-c3ccsc3)ccc2n1 [Example 382, 2-amino-4-[N-(4-chlorophenoxyacetyl)piperazin-1-yl]-6-(thiophen-3-yl)pyrido-[3,2-d]pyrimidine] | 1523 | 8.05 | 13100 |  |  |
| CCOc1nc(N)nc2ccc(-c3ccc(N)cc3)nc12 [Example 465, 6-(4-amino-phenyl)-4-ethoxy-pyrido[3,2-d]pyrimidin-2-ylamine] | 145 |  | 50100 | 6.46 |  |
| COc1ccc(-c2ccc3nc(Nc4ccc(C)cc4)nc(N4CCN(C(=O)Nc5cccc(C)c5)CC4)c3n2)cc1OC [Example 94, 2-(p-tolylamino)-4-[(N-3-methylphenylcarbamoyl)-piperazin-1-yl]-6-(3,4-dimethoxy-phenyl)-pyrido[3,2-d]pyrimidine] | 339 | 7.13 | 25100 |  |  |
| COc1ccc(-c2ccc3nc(C)nc(N4CCN(C(=O)Nc5cccc(C)c5)CC4)c3n2)cc1OC [Example 11] | 98 | 7.12 | 7300 |  |  |
| 2-amino-4-[N-3-chloro-phenyl-carbamoyl)-piperazin-1-yl]-6-(3,4-(methylenedioxy)phenyl)pyrido[3,2-d]pyrimidine [Example 173] | 143 | 7.62 | 3400 |  |  |
| CCOc1nc(N)nc2ccc(-c3cccs3)nc12 [Example 467, 4-Ethoxy-6-thiophen-2-yl-pyrido[3,2-d]pyrimidin-2-ylamine] | 113 |  | 50100 |  | 6.35 |
| CCCCCOc1nc(N)nc2ccc(-c3ccccc3F)nc12 [Example 297, 2-amino-4-n-pentyloxy-6-(o-fluorophenyl)pyrido[3,2-d]-pyrimidine] | 66 |  | 50100 |  | 6.12 |
| Nc1nc(N2CCN(C(=O)COc3ccc(Cl)cc3)CC2)c2nc(-c3ccoc3)ccc2n1 [Example 381, 2-amino-4-[N-(4-chlorophenoxyacetyl)piperazin-1-yl]-6-(furan-3-yl)pyrido-[3,2-d]pyrimidine] | 149 | 7.21 | 9100 |  |  |
| COc1ccc(-c2ccc3nc(N)nc(NCCN4CCOCC4)c3n2)cc1OC [Example 38, 2-amino-4-[4-(2-aminoethyl)morpholino]-6-(3,4-dimethoxyphenyl)-pyrido[3,2-d]pyrimidine] | 151 | 7.33 | 7100 |  |  |
| CCSc1nc(N)nc2ccc(-c3ccc(F)cc3)nc12 [Example 393, 2-amino-4-thioethyl-6-(4-fluorophenyl)pyrido(3,2-d)pyrimidine] | 154 | 6.63 | 36000 |  |  |
| COc1ccc(-c2ccc3nc(N)nc(N4CCN(c5ccccn5)CC4)c3n2)cc1OC [Example 52, 2-amino-4-(2-pyridyl-piperazin-1-yl)-6-(3,4-dimethoxyphenyl)-pyrido[3,2-d]pyrimidine] | 72 | 7.38 | 3000 |  |  |
| Nc1nc(N2CCN(C(=O)COc3ccc(Cl)cc3)CC2)c2nc(-c3ccc(F)c(Cl)c3)ccc2n1 [Example 387, 2-amino-4-[N-(4-chlorophenoxyacetyl)piperazin-1-yl]-6-(3-chloro-4-fluorophenyl)-pyrido-[3,2-d]pyrimidine] | 280 | 7.68 | 5900 |  |  |
| COc1cc(-c2ccc3ncnc(N4CCN(C(=O)Nc5cccc(Cl)c5)CC4)c3n2)ccc1OC(C)C [Example 124] | 71 | 7.46 | 2500 |  |  |
| CCOc1nc(NC(C)=O)nc2ccc(-c3ccc(F)cc3)nc12 [NHCOMe/OEt/(4-F)Ph] | 170 | 6.83 | 25100 |  |  |
